Patent US9994547B2, “Heteroarylamide inhibitors of TBK1” (Takeda Pharmaceutical Company Limited, priority 2014, dated 2018)

Biological target: Full length human TBK1 (Homo sapiens (Human), UniProt Q9UHD2)
Test: Inhibition of TBK1 Enzyme (Example A)
Type: biochemical
Conditions: -log(IC50), IC50 molar, 3 nM TBK1, 25 μM ATP, 60 min RT; for IC50: read-out: TBK1 Inhibition (pIC50) (converted)
Procedure, shortened: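 Full-length N-His human TBK1 from Sf9 baculovirus was tested with 11-point 2.5-fold dilutions (1% DMSO) in Hepes pH 7.4, MgCl2, EDTA, Brij, DTT. After 60 min RT and EDTA quench, microfluidic conversion was fitted and reported as pIC50.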

Chain of Full length human TBK1 (Q9UHD2 whole entry): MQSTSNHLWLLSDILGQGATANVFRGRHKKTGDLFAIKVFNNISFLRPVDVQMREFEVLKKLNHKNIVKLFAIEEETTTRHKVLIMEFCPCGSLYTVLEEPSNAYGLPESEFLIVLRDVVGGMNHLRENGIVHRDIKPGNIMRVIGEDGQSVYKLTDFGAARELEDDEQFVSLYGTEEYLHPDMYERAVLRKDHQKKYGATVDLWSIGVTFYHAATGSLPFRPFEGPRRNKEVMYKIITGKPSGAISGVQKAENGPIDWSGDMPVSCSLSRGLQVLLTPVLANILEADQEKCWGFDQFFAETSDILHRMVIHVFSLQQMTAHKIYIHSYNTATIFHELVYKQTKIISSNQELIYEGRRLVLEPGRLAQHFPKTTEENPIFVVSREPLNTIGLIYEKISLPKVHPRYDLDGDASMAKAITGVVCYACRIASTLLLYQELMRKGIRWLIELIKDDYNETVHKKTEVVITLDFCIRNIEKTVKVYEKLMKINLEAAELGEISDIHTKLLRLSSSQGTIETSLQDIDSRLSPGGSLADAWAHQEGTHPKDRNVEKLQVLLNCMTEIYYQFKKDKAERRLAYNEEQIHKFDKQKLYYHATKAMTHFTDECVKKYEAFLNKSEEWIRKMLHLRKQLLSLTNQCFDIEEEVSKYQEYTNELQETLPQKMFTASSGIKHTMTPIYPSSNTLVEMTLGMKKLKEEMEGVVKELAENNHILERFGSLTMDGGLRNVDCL

TBK1 Inhibition (pIC50)	IC50 [nM]	SMILES
6.9		N#Cc1ncc(-c2cnc(NC(=O)C3CC3)cn2)cc1NCC(=O)N1CCOC[C@@H]1CF [Example 75, (R)-N-(5-(6-cyano-5-((2-(3-(fluoromethyl)morpholino)-2-oxoethyl)amino)pyridin-3-yl)pyrazin-2-yl)cyclopropanecarboxamide]
5.3		CN(Cc1cnccn1)C(=O)CNc1cc(-c2cnc(NC(=O)C3CC3)cn2)cnc1C#N [Example 76, N-(5-(6-cyano-5-((2-(methyl(pyrazin-2-ylmethyl)amino)-2-oxoethyl)amino)pyridin-3-yl)pyrazin-2-yl)cyclopropanecarboxamide]
7.2		COCCN(CC(F)(F)F)C(=O)CNc1cc(-c2cnc(NC(=O)C3CC3)cn2)cnc1C#N [Example 77, N-(5-(6-cyano-5-((2-((2-methoxyethyl)(2,2,2-trifluoroethyl)amino)-2-oxoethyl)amino)pyridin-3-yl)pyrazin-2-yl)cyclopropanecarboxamide]
6.6		CN(C)C(=O)[C@@H](CC(F)F)Nc1cc(-c2cnc(NC(=O)C3CC3)cn2)cnc1C#N [Example 78, (R)-N-(5-(6-cyano-5-((1-(dimethylamino)-4,4-difluoro-1-oxobutan-2-yl)amino)pyridin-3-yl)pyrazin-2-yl)cyclopropanecarboxamide]
6.8		C[C@H](Nc1cc(-c2cnc(NC(=O)C3CC3)cn2)cnc1C#N)C(=O)N(CCO)CC(F)F [Example 79, (S)-N-(5-(6-cyano-5-((1-((2,2-difluoroethyl)(2-hydroxyethyl)amino)-1-oxopropan-2-yl)amino)pyridin-3-yl)pyrazin-2-yl)cyclopropanecarboxamide]
7.4		CN(C)C(=O)[C@H](CC(F)F)Nc1cc(-c2cnc(NC(=O)C3CC3)cn2)cnc1C#N [Example 80, (S)-N-(5-(6-cyano-5-((1-(dimethylamino)-4,4-difluoro-1-oxobutan-2-yl)amino)pyridin-3-yl)pyrazin-2-yl)cyclopropanecarboxamide]
7.8		C[C@H](Nc1cc(-c2cnc(NC(=O)C3CC3)cn2)cnc1C#N)C(=O)N1CCOC[C@@H]1C#N [Example 81, N-(5-(6-cyano-5-(((S)-1-((S)-3-cyanomorpholino)-1-oxopropan-2-yl)amino)pyridin-3-yl)pyrazin-2-yl)cyclopropanecarboxamide]
7.8		COCCN(CC(F)F)C(=O)CNc1cc(-c2cnc(NC(=O)C3CC3)cn2)cnc1C#N [Example 82, N-(5-(6-cyano-5-((2-((2,2-difluoroethyl)(2-methoxyethyl)amino)-2-oxoethyl)amino)pyridin-3-yl)pyrazin-2-yl)cyclopropanecarboxamide]
7.0		C[C@@H](Nc1cc(-c2cnc(NC(=O)C3CC3)cn2)cnc1C#N)C(=O)N(C)CC(F)F [Example 83, (R)-N-(5-(6-cyano-5-((1-((2,2-difluoroethyl)(methyl)amino)-1-oxopropan-2-yl)amino)pyridin-3-yl)pyrazin-2-yl)cyclopropanecarboxamide]
7.2		C[C@H]1COCCN1C(=O)CNc1cc(-c2cnc(NC(=O)C3CC3)cn2)cnc1C#N [Example 84, (S)-N-(5-(6-cyano-5-((2-(3-methylmorpholino)-2-oxoethyl)amino)pyridin-3-yl)pyrazin-2-yl)cyclopropanecarboxamide]
7.1		CN(CCF)C(=O)C(CC(F)F)Nc1cc(-c2cnc(NC(=O)C3CC3)cn2)cnc1C#N (stereo not drawn) [Example 85, N-(5-(6-cyano-5-((4,4-difluoro-1-((2-fluoroethyl)(methyl)amino)-1-oxobutan-2-yl)amino)pyridin-3-yl)pyrazin-2-yl)cyclopropanecarboxamide]
8.4		CC1CC1C(=O)Nc1cnc(-c2cnc(C#N)c(N[C@@H](C)C(=O)N(C)CC(F)F)c2)cn1 (stereo partly drawn) [Example 86, N-(5-(6-cyano-5-(((S)-1-((2,2-difluoroethyl)(methyl)amino)-1-oxopropan-2-yl)amino)pyridin-3-yl)pyrazin-2-yl)-2-methylcyclopropanecarboxamide]
7.2		N#CCN(CCO)C(=O)CNc1cc(-c2cnc(NC(=O)C3CC3)cn2)cnc1C#N [Example 87, N-(5-(6-cyano-5-((2-((cyanomethyl)(2-hydroxyethyl)amino)-2-oxoethyl)amino)pyridin-3-yl)pyrazin-2-yl)cyclopropanecarboxamide]
7.6		C[C@H](Nc1cc(-c2cnc(NC(=O)C3CC3)cn2)cnc1C#N)C(=O)N(C)[C@H](C)C#N [Example 88, N-(5-(6-cyano-5-(((S)-1-(((R)-1-cyanoethyl)(methyl)amino)-1-oxopropan-2-yl)amino)pyridin-3-yl)pyrazin-2-yl)cyclopropanecarboxamide]
7.9		C[C@H](Nc1cc(-c2cnc(NC(=O)C3CC3)cn2)cnc1C#N)C(=O)N(C)[C@@H](C)C#N [Example 89, N-(5-(6-cyano-5-(((S)-1-(((S)-1-cyanoethyl)(methyl)amino)-1-oxopropan-2-yl)amino)pyridin-3-yl)pyrazin-2-yl)cyclopropanecarboxamide]
5.6		N#Cc1ncc(-c2cnc(NC(=O)C3CC3)cn2)cc1NCC(=O)N(CCCO)CC(F)(F)F [Example 90, N-(5-(6-cyano-5-((2-((3-hydroxypropyl)(2,2,2-trifluoroethyl)amino)-2-oxoethyl)amino)pyridin-3-yl)pyrazin-2-yl)cyclopropanecarboxamide]
7.7		C[C@H](Nc1cc(-c2cnc(NC(=O)C3CC3)cn2)cnc1C#N)C(=O)N1CCOC[C@@H]1C [Example 91, N-(5-(6-cyano-5-(((S)-1-((S)-3-methylmorpholino)-1-oxopropan-2-yl)amino)pyridin-3-yl)pyrazin-2-yl)cyclopropanecarboxamide]
6.2		CCC(C#N)N(C)C(=O)CNc1cc(-c2cnc(NC(=O)C3CC3)cn2)cnc1C#N (stereo not drawn) [Example 92, N-(5-(6-cyano-5-((2-((1-cyanopropyl)(methyl)amino)-2-oxoethyl)amino)pyridin-3-yl)pyrazin-2-yl)cyclopropanecarboxamide]
6.8		C[C@H](Nc1cc(-c2cnc(NC(=O)C3CC3)cn2)cnc1C#N)C(=O)N(CC#N)CCO [Example 93, (S)-N-(5-(6-cyano-5-((1-((cyanomethyl)(2-hydroxyethyl)amino)-1-oxopropan-2-yl)amino)pyridin-3-yl)pyrazin-2-yl)cyclopropanecarboxamide]
7.3		N#Cc1ncc(-c2cnc(NC(=O)C3CC3)cn2)cc1NCC(=O)N1CCC1C(F)(F)F (stereo not drawn) [Example 94, N-(5-(6-cyano-5-((2-oxo-2-(2-(trifluoromethyl)azetidin-1-yl)ethyl)amino)pyridin-3-yl)pyrazin-2-yl)cyclopropanecarboxamide]
	631	N#Cc1ncc(-c2cnc(NC(=O)C3CC3)cn2)cc1NCC(=O)N1CCO[C@@H]1C(F)(F)F [Example 95, (R)-N-(5-(6-cyano-5-((2-oxo-2-(2-(trifluoromethyl)oxazolidin-3-yl)ethyl)amino)pyridin-3-yl)pyrazin-2-yl)cyclopropanecarboxamide]
	15.8	N#Cc1ncc(-c2cnc(NC(=O)C3CC3)cn2)cc1NCC(=O)N1CCO[C@H]1C(F)(F)F [Example 96, (S)-N-(5-(6-cyano-5-((2-oxo-2-(2-(trifluoromethyl)oxazolidin-3-yl)ethyl)amino)pyridin-3-yl)pyrazin-2-yl)cyclopropanecarboxamide]
5.5		CN1CCN(C(=O)CNc2cc(-c3cnc(NC(=O)C4CC4)cn3)cnc2C#N)CC1 [Example 97, N-(5-(6-cyano-5-((2-(4-methylpiperazin-1-yl)-2-oxoethyl)amino)pyridin-3-yl)pyrazin-2-yl)cyclopropanecarboxamide]
5.1		COCCN1CCN(C(=O)CNc2cc(-c3cnc(NC(=O)C4CC4)cn3)cnc2C#N)CC1 [Example 98, N-(5-(6-cyano-5-((2-(4-(2-methoxyethyl)piperazin-1-yl)-2-oxoethyl)amino)pyridin-3-yl)pyrazin-2-yl)cyclopropanecarboxamide]
6.0		CC(=O)N1CCN(C(=O)CNc2cc(-c3cnc(NC(=O)C4CC4)cn3)cnc2C#N)CC1 [Example 99, N-(5-(5-((2-(4-acetylpiperazin-1-yl)-2-oxoethyl)amino)-6-cyanopyridin-3-yl)pyrazin-2-yl)cyclopropanecarboxamide]
6.5		N#Cc1ncc(-c2cnc(NC(=O)C3CC3)cn2)cc1NCC(=O)N1CCOC(C(F)(F)F)C1 (stereo not drawn) [Example 100, N-(5-(6-cyano-5-((2-oxo-2-(2-(trifluoromethyl)morpholino)ethyl)amino)pyridin-3-yl)pyrazin-2-yl)cyclopropanecarboxamide]
	200	N#Cc1ncc(-c2cnc(NC(=O)C3CC3)cn2)cc1NCC(=O)N1CCOC[C@@H]1C(F)(F)F [Example 101, (R)-N-(5-(6-cyano-5-((2-oxo-2-(3-(trifluoromethyl)morpholino)ethyl)amino)pyridin-3-yl)pyrazin-2-yl)cyclopropanecarboxamide]
6.6		N#Cc1ncc(-c2cnc(NC(=O)C3CC3)cn2)cc1NCC(=O)N1CCC(C#N)C1 (stereo not drawn) [Example 102, N-(5-(6-cyano-5-((2-(3-cyanopyrrolidin-1-yl)-2-oxoethyl)amino)pyridin-3-yl)pyrazin-2-yl)cyclopropanecarboxamide]
6.8		CC1CN(C(=O)CNc2cc(-c3cnc(NC(=O)C4CC4)cn3)cnc2C#N)CCO1 (stereo not drawn) [Example 103, N-(5-(6-cyano-5-((2-(2-methylmorpholino)-2-oxoethyl)amino)pyridin-3-yl)pyrazin-2-yl)cyclopropanecarboxamide]
5.4		N#Cc1ncc(-c2cnc(NC(=O)C3CC3)cn2)cc1NCC(=O)N1CC2(COC2)C1 [Example 104, N-(5-(6-cyano-5-((2-oxo-2-(2-oxa-6-azaspiro[3.3]heptan-6-yl)ethyl)amino)pyridin-3-yl)pyrazin-2-yl)cyclopropanecarboxamide]
